Reference: patent US12077503B2, “Substituted cyclic amides and their use as herbicides” (FMC CORPORATION, priority 2015, dated 2024)

What was measured:
Type in all cases: in vivo
[1] = test system: barnyardgrass (Echinochloa crus-galli); experiment: Test G Pre-Emergence Protocol; settings: Echinochloa crus-galli, pre-emergence, 312 h, evaluated after 13 days; for pest or weed control at 15.625 g/ha: 15.625 g ai/ha, read-out: Barnyard grass damage rating (100=total damage to plant; 0=no damage to plant); for pest or weed control at 62.5 g/ha: 62.5 g ai/ha, 100=total damage to plant, 0=no damage to plant, read-out: plant damage rating, Barnyardgrass; for pest or weed control at 250 g/ha: 250 g ai/ha, read-out: Barnyardgrass damage rating (100=total damage to plant; 0=no damage to plant)
Summary of the method: (§1)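 Glasshouse pre-emergence test: soil-sown seeds, sprayed after 1 d at 15.625, 62.5 or 250 g/ha. Conditions 24/16° C day/night, 14 h light, 65% humidity, watering twice daily. Rating 13 d post-spray (100 = total damage).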

corn (Zea mays) [2] = experiment: Test G Pre-Emergence Protocol; settings: Zea mays, pre-emergence, 312 h, evaluated after 13 days; for plant injury at 15.625 g/ha: 15.625 g ai/ha; for plant injury at 15.625 g/ha / plant injury at 250 g/ha: read-out: Corn damage rating (100=total damage to plant; 0=no damage to plant); for plant injury at 62.5 g/ha: 62.5 g ai/ha, 100=total damage to plant, 0=no damage to plant, read-out: plant damage rating, Corn; for plant injury at 250 g/ha: 250 g ai/ha
Summary of the method: as §1

[3] = test system: giant foxtail (Setaria faberi); experiment: Test G Pre-Emergence Protocol; settings: Setaria faberi, pre-emergence, 312 h, evaluated after 13 days; for pest or weed control at 15.625 g/ha: 15.625 g ai/ha; for pest or weed control at 15.625 g/ha / pest or weed control at 250 g/ha: read-out: Foxtail, Giant damage rating (100=total damage to plant; 0=no damage to plant); for pest or weed control at 62.5 g/ha: 62.5 g ai/ha, 100=total damage to plant, 0=no damage to plant, read-out: plant damage rating, Foxtail, Giant; for pest or weed control at 250 g/ha: 250 g ai/ha
Summary of the method: as §1

[4] = test system: ivy-leaved morning glory (Ipomoea hederacea); experiment: Test G Pre-Emergence Protocol; settings: Ipomoea, pre-emergence, 312 h, evaluated after 13 days; for pest or weed control at 15.625 g/ha: 15.625 g ai/ha, read-out: Morning-glory, Ivy-leaved damage rating (100=total damage to plant; 0=no damage to plant); for pest or weed control at 62.5 g/ha: 62.5 g ai/ha, 100=total damage to plant, 0=no damage to plant, read-out: plant damage rating, Morningglory, Ivy-leaved; for pest or weed control at 250 g/ha: 250 g ai/ha, read-out: Morningglory, Ivy-leaved damage rating (100=total damage to plant; 0=no damage to plant)
Summary of the method: as §1

[5] = test system: redroot pigweed (Amaranthus retroflexus); experiment: Test G Pre-Emergence Protocol; settings: Amaranthus retroflexus, pre-emergence, 312 h, evaluated after 13 days; for pest or weed control at 15.625 g/ha: 15.625 g ai/ha; for pest or weed control at 15.625 g/ha / pest or weed control at 250 g/ha: read-out: Pigweed, Redroot damage rating (100=total damage to plant; 0=no damage to plant); for pest or weed control at 62.5 g/ha: 62.5 g ai/ha, 100=total damage to plant, 0=no damage to plant, read-out: plant damage rating, Pigweed, Redroot; for pest or weed control at 250 g/ha: 250 g ai/ha
Summary of the method: as §1

[6] = test system: velvetleaf (Abutilon theophrasti); experiment: Test G Pre-Emergence Protocol; settings: Abutilon theophrasti, pre-emergence, 312 h, evaluated after 13 days; for pest or weed control at 15.625 g/ha: 15.625 g ai/ha; for pest or weed control at 15.625 g/ha / pest or weed control at 250 g/ha: read-out: Velvetleaf damage rating (100=total damage to plant; 0=no damage to plant); for pest or weed control at 62.5 g/ha: 62.5 g ai/ha, 100=total damage to plant, 0=no damage to plant, read-out: plant damage rating, Velvetleaf; for pest or weed control at 250 g/ha: 250 g ai/ha
Summary of the method: as §1

[7] = test system: barnyardgrass (Echinochloa crus-galli); experiment: Test G Post-Emergence Protocol; settings: Echinochloa crus-galli, post-emergence, 312 h; for pest or weed control at 15.625 g/ha: 15.625 g ai/ha, evaluated after 13 days (100=total damage to plant; 0=no damage to plant), read-out: Barnyardgrass damage rating; for pest or weed control at 62.5 g/ha: 62.5 g ai/ha, read-out: Barnyardgrass damage rating (100=total damage to plant; 0=no damage to plant); for pest or weed control at 62.5 g/ha / pest or weed control at 250 g/ha: evaluated after 13 days; for pest or weed control at 250 g/ha: 250 g ai/ha, read-out: damage to plant, Barnyardgrass (100=total damage to plant; 0=no damage to plant)
Summary of the method: (§2)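 Foliar application was made 8 days after sowing, using an aqueous spray of the active in acetone/water (50:50) with 0.5% Tween 20, at doses of 15.625, 62.5 or 250 g/ha. Injury was assessed 13 days later, where 100 meant the plant was fully damaged.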

corn (Zea mays) [8] = experiment: Test G Post-Emergence Protocol; settings: Zea mays, post-emergence, 312 h; for plant injury at 15.625 g/ha: 15.625 g ai/ha, evaluated after 13 days (100=total damage to plant; 0=no damage to plant), read-out: Corn damage rating; for plant injury at 62.5 g/ha: 62.5 g ai/ha, read-out: Corn damage rating (100=total damage to plant; 0=no damage to plant); for plant injury at 62.5 g/ha / plant injury at 250 g/ha: evaluated after 13 days; for plant injury at 250 g/ha: 250 g ai/ha, read-out: damage to plant, Corn (100=total damage to plant; 0=no damage to plant)
Summary of the method: as §2

[9] = test system: giant foxtail (Setaria faberi); experiment: Test G Post-Emergence Protocol; settings: Setaria faberi, post-emergence, 312 h; for pest or weed control at 15.625 g/ha: 15.625 g ai/ha, evaluated after 13 days (100=total damage to plant; 0=no damage to plant), read-out: Foxtail, Giant damage rating; for pest or weed control at 62.5 g/ha: 62.5 g ai/ha, read-out: Foxtail, Giant damage rating (100=total damage to plant; 0=no damage to plant); for pest or weed control at 62.5 g/ha / pest or weed control at 250 g/ha: evaluated after 13 days; for pest or weed control at 250 g/ha: 250 g ai/ha, read-out: damage to plant, Foxtail, Giant (100=total damage to plant; 0=no damage to plant)
Summary of the method: as §2

[10] = test system: ivy-leaved morning glory (Ipomoea hederacea); experiment: Test G Post-Emergence Protocol; settings: Ipomoea, post-emergence, 312 h; for pest or weed control at 15.625 g/ha: 15.625 g ai/ha, evaluated after 13 days (100=total damage to plant; 0=no damage to plant), read-out: Morningglory, Ivy-leaved damage rating; for pest or weed control at 62.5 g/ha: 62.5 g ai/ha, read-out: Morningglory, Ivy-leaved damage rating (100=total damage to plant; 0=no damage to plant); for pest or weed control at 62.5 g/ha / pest or weed control at 250 g/ha: evaluated after 13 days; for pest or weed control at 250 g/ha: 250 g ai/ha, read-out: damage to plant, Morningglory, Ivy-leaved (100=total damage to plant; 0=no damage to plant)
Summary of the method: as §2

[11] = test system: redroot pigweed (Amaranthus retroflexus); experiment: Test G Post-Emergence Protocol; settings: Amaranthus retroflexus, post-emergence, 312 h; for pest or weed control at 15.625 g/ha: 15.625 g ai/ha, evaluated after 13 days (100=total damage to plant; 0=no damage to plant), read-out: Pigweed, Redroot damage rating; for pest or weed control at 62.5 g/ha: 62.5 g ai/ha, read-out: Pigweed, Redroot damage rating (100=total damage to plant; 0=no damage to plant); for pest or weed control at 62.5 g/ha / pest or weed control at 250 g/ha: evaluated after 13 days; for pest or weed control at 250 g/ha: 250 g ai/ha, read-out: damage to plant, Pigweed, Redroot (100=total damage to plant; 0=no damage to plant)
Summary of the method: as §2

[12] = test system: velvetleaf (Abutilon theophrasti); experiment: Test G Post-Emergence Protocol; settings: Abutilon theophrasti, post-emergence, 312 h; for pest or weed control at 15.625 g/ha: 15.625 g ai/ha, evaluated after 13 days (100=total damage to plant; 0=no damage to plant), read-out: Velvetleaf damage rating; for pest or weed control at 62.5 g/ha: 62.5 g ai/ha, read-out: Velvetleaf damage rating (100=total damage to plant; 0=no damage to plant); for pest or weed control at 62.5 g/ha / pest or weed control at 250 g/ha: evaluated after 13 days; for pest or weed control at 250 g/ha: 250 g ai/ha, read-out: damage to plant, Velvetleaf (100=total damage to plant; 0=no damage to plant)
Summary of the method: as §2

Structure (SMILES)	pest or weed control at 15.625 g/ha [1]	pest or weed control at 62.5 g/ha [1]	pest or weed control at 250 g/ha [1]	plant injury at 15.625 g/ha (corn (Zea mays) [2])	plant injury at 62.5 g/ha (corn (Zea mays) [2])	plant injury at 250 g/ha (corn (Zea mays) [2])	pest or weed control at 15.625 g/ha [3]	pest or weed control at 62.5 g/ha [3]	pest or weed control at 250 g/ha [3]	pest or weed control at 15.625 g/ha [4]	pest or weed control at 62.5 g/ha [4]	pest or weed control at 250 g/ha [4]	pest or weed control at 15.625 g/ha [5]	pest or weed control at 62.5 g/ha [5]	pest or weed control at 250 g/ha [5]	pest or weed control at 15.625 g/ha [6]	pest or weed control at 62.5 g/ha [6]	pest or weed control at 250 g/ha [6]	pest or weed control at 15.625 g/ha [7]	pest or weed control at 62.5 g/ha [7]	other results
Cc1cc(NC(=O)[C@@H]2C(=O)N(C)C[C@H]2c2ccc(C(F)(F)F)cc2)[nH]n1 (racemic) [Compound 1626]	0%	0%	0%	0%	0%	0%	0%	0%	0%	0%	0%	0%	0%	0%	0%	0%	0%	0%	0%	0%	pest or weed control at 250 g/ha [7]: 0%; plant injury at 15.625 g/ha (corn (Zea mays) [8]): 0%; plant injury at 62.5 g/ha (corn (Zea mays) [8]): 0%; plant injury at 250 g/ha (corn (Zea mays) [8]): 0%; pest or weed control at 15.625 g/ha [9]: 0%; pest or weed control at 62.5 g/ha [9]: 0%; pest or weed control at 250 g/ha [9]: 0%; pest or weed control at 15.625 g/ha [10]: 0%; pest or weed control at 62.5 g/ha [10]: 0%; pest or weed control at 250 g/ha [10]: 0%; pest or weed control at 15.625 g/ha [11]: 0%; pest or weed control at 62.5 g/ha [11]: 0%; pest or weed control at 250 g/ha [11]: 0%; pest or weed control at 15.625 g/ha [12]: 0%; pest or weed control at 62.5 g/ha [12]: 0%; pest or weed control at 250 g/ha [12]: 0%
CN1C[C@H](c2ccc(C(C)(C)C)cc2)[C@@H](C(=O)Nc2ccccc2F)C1=O (racemic) [Compound 1409]	0%	0%	10%	0%	0%	0%	0%	0%	40%	0%	0%	0%	0%	0%	0%	0%	0%	0%	0%	10%	pest or weed control at 250 g/ha [7]: 30%; plant injury at 15.625 g/ha (corn (Zea mays) [8]): 0%; plant injury at 62.5 g/ha (corn (Zea mays) [8]): 0%; plant injury at 250 g/ha (corn (Zea mays) [8]): 10%; pest or weed control at 15.625 g/ha [9]: 0%; pest or weed control at 62.5 g/ha [9]: 0%; pest or weed control at 250 g/ha [9]: 40%; pest or weed control at 15.625 g/ha [10]: 0%; pest or weed control at 62.5 g/ha [10]: 0%; pest or weed control at 250 g/ha [10]: 0%; pest or weed control at 15.625 g/ha [11]: 0%; pest or weed control at 62.5 g/ha [11]: 0%; pest or weed control at 250 g/ha [11]: 10%; pest or weed control at 15.625 g/ha [12]: 0%; pest or weed control at 62.5 g/ha [12]: 0%; pest or weed control at 250 g/ha [12]: 10%
CN1C[C@@H](c2ccc(C(F)(F)F)cc2)[C@H](C(=O)Nc2ncnn2C)C1=O (racemic) [Compound 1643]	0%	0%	0%	0%	0%	0%	0%	0%	0%	0%	0%	0%	0%	0%	0%	0%	0%	0%	0%	0%	pest or weed control at 250 g/ha [7]: 0%; plant injury at 15.625 g/ha (corn (Zea mays) [8]): 0%; plant injury at 62.5 g/ha (corn (Zea mays) [8]): 0%; plant injury at 250 g/ha (corn (Zea mays) [8]): 0%; pest or weed control at 15.625 g/ha [9]: 0%; pest or weed control at 62.5 g/ha [9]: 0%; pest or weed control at 250 g/ha [9]: 0%; pest or weed control at 15.625 g/ha [10]: 0%; pest or weed control at 62.5 g/ha [10]: 0%; pest or weed control at 250 g/ha [10]: 0%; pest or weed control at 15.625 g/ha [11]: 0%; pest or weed control at 62.5 g/ha [11]: 0%; pest or weed control at 250 g/ha [11]: 0%; pest or weed control at 15.625 g/ha [12]: 0%; pest or weed control at 62.5 g/ha [12]: 0%; pest or weed control at 250 g/ha [12]: 0%
